Assay results published in patent US20090031435A1, “SMA Therapy and Cell Based Assay” (priority 2002, published 2009).

Experiments:
[1] = test system: SMN2-luciferase reporter construct; assay: SMN2-luciferase splicing reporter luminescence assay in C33A cells; type: cell-based, human
Protocol: (§1) In a screen to identify compounds capable of enhancing the inclusion of exon 7 in SMN2 mRNA, cells of the human cervical carcinoma cell line C33A (ATCC#HTB-31) were stably transformed with an SMN fragment/luciferase reporter gene construct that incorporated exons 6-8 of SMN1 or SMN2 for use in a high-throughput screening assay. These cells were cultured in Dulbecco's Modified Eagle's Medium (DMEM) with 10% Fetal Bovine Serum (Sigma F 2442), 50 units/mL penicillin 50 μg/mL streptomycin sulfate and 400 mg/L G418 (i.e. Geneticin, Gibco, cat. No. 11811-031). The assay medium used to perform the luciferase assay was identical to the growth medium except the G418 selection agent was omitted. To perform the luciferase assay, a single reagent (25 mM glycylglycine, 15 mM magnesium sulfate, 4 mM EGTA, adjusted to pH 7.85, to which is added 10 μM D-luciferin (Sigma L9504), 10 mM dithiothreitol (DTT, Roche Molecular Biochemicals 100034), 2 mM adenosine 5′-triphosphate (ATP, Sigma A7699), 50 μM CoenzymeA, sodium salt (Sigma C 3144) and 1.5% Triton X-100) was used to lyse the cells and to initiate the luciferase reaction.
(§2) Using this cell-based luminescence assay, a screen was performed to identify compounds that modulate SMN splicing. Stably transfected C33A cells (˜35-40 M cells/flask) were cultured, then removed from T-175 culture flasks with 3 mL trypsin, and quenched with 7 mL assay medium. The cells were spun down and re-suspended in assay medium to a concentration of ˜200,000 cells/mL. Cells were immediately seeded in 384-well assay plates (Nalge Nunc white plates, #164610) 57 μL/well for a cell density of 11,000 cells/well. Compounds from a library obtained from the National Institute of Neurological Disorders and Stroke (NINDS) were added to the cells to a final concentration of 10 μM (diluted with assay medium by 1000× from the 10 mM stock solution in DMSO). The cells were incubated with the test compounds at 37° C. for ˜48 hr. A Zymark Sciclone ALH was used for cell seeding and compound addition. After incubation, the assay plates were cooled to room temperature for ˜10-60 minutes. The medium and compounds were aspirated from the wells, followed by 6 rinse/aspirate cycles with a PBS solution. 53 μL of the luciferase assay reagent was added and the plate was immediately transferred to a luminescence plate reader. The plate was shaken for 30 minutes prior to reading. The plate processing steps were performed on an integrated Packard Minitrak/Sidetrak platereader.
(§3) To analyze the data, the dark count background was first subtracted from all luminescence readings. The signal from each compound treated well was divided by the average of 48 control wells on the same 384-well plate. Each compound library plate was tested in triplicate with each of the two cell lines, and the entire assay was repeated on two separate occasions, yielding six readings for each compound for each cell line. The highest and lowest of the six normalized readings were dropped and the remaining four readings averaged. These average values of compound-treated luminescence versus control luminescence are denoted “Xnorm(y)”, where X indicates the cell line, SMN1-luciferase or SMN2-luciferase, and y represents the compound. The difference of [SMN2norm(y)−SMN1norm(y)] measures the selective change in SMN2-luciferase expression versus change in SMN1 luciferase production upon treatment with compound y. This is the final score that is output.
(§4) These dilutions were created with a Zymark Sciclone ALH Z-8. Once created, the assay was performed as described for the screening process. Concentrations required to achieve 50% of the maximally achievable effect for each compound (“EC50”) were calculated using Xlfit (IDBS).

[2] = test system: SMN2-luciferase reporter construct; assay: SMN2-luciferase splicing reporter luminescence assay in NSC34 cells; type: cell-based, mouse
From the text: For example, when luciferase is used as the reporter gene in an SMN splicing assay, synthesis of full-length protein can be monitored by luminescence; positive drug candidates will elicit an increase in the amount of luminescence produced from an SMN2-luciferase cassette, which is normally inefficiently spliced, but will not affect the level of luminescence in cells expressing the SMN1-luciferase reporter (because SMN1 transcripts are normally spliced to include exon 7 about 100% of the time). ELISA, Western blotting or gem counts (obtained using indirect immunofluorescence microscopy) can be used to verify the increase in SMN2-luciferase protein levels, and analysis by RNAase protection, Northern blot or RT-PCR, such as quantitative or semiquantitative, can be used to determine whether the effect of the compound is at the level of splicing or mRNA stability. Identification of a role for indoprofen or analogs of this compound in SMN splicing in vitro can be achieved through the generation of stable cell lines expressing the SMN-reporter gene (e.g., SMN-luciferase) splicing cassette. For example, the embryonic mouse spinal cord cell line NSC34 and the human cervical carcinoma cell line C33A can be used for the methods of the invention. […]

SMN1-luciferase control = SMN1-luciferase control splicing reporter luminescence assay in C33A cells; type: cell-based, human
Protocol: as §1, §2, §3, §4

With `CC(Cc1ccccc1)C(=O)O` (stereo not drawn) [Alpha-methylhydrocinnamic acid] the “Effect on splicing of SMN2-luciferase in C33A cells” value [1] was “Decreased”, the “Effect on splicing of SMN2-luciferase in NSC34 cells” value [2] was “(no effect in NSC34” and the “Effect on splicing of SMN1-luciferase control in C33A cells” value (SMN1-luciferase control) was “Decreased”.
